Patent publication US20090264384A1, “INDOLE, BENZIMIDAZOLE, AND BENZOLACTAM BORONIC ACID COMPOUNDS, ANALOGS THEREOF AND METHODS OF USE THEREOF” (Nuada, Inc., priority 2004, published 2009)

Tests used:
β2(h) = target: T1, β2(h) (Homo sapiens, UniProt P07550); assay: β2(h) binding assay; conditions: read-out: % Inhibition of Control Specific Binding
T1 construct: expressed in transfected cells; host or cells: Sf9 cells

GABA transaminase = target: T2, GABA transaminase (Rattus norvegicus, UniProt P50554); assay: GABA transaminase enzyme assay; type: biochemical; conditions: 1.0E−05 M
T2 construct: rat brain; from tissue; host or cells: rat brain
T2 sequence (P50554 28-500): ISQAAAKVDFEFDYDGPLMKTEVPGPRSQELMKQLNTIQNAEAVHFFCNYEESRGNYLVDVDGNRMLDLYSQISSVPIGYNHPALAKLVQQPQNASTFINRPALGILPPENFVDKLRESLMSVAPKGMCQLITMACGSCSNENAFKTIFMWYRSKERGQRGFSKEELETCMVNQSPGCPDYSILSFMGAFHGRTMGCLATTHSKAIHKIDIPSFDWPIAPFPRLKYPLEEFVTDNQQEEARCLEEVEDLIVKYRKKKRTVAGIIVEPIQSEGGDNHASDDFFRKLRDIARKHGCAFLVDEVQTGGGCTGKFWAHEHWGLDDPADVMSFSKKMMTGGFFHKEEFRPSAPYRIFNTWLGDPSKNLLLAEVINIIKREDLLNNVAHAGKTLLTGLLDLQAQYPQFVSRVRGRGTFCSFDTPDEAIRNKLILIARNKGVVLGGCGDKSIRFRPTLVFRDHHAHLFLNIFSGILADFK

T1 sequence (P07550 whole entry): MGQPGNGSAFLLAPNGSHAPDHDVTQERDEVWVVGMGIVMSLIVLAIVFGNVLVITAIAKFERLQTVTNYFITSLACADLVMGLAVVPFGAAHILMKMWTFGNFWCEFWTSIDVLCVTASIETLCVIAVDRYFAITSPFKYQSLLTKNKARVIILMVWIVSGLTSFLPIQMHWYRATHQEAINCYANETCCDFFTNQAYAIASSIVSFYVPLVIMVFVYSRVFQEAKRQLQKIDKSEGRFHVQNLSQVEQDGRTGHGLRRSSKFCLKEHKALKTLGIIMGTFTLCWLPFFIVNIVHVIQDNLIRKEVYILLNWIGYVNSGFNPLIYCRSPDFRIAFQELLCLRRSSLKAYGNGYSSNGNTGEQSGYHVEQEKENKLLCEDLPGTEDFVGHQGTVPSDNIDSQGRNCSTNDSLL

Q: Which results are given for N#Cc1ccc2c(ccn2CCCCCB(O)O)c1 [Example 20, 5-(5-cyano-1H-indol-1-yl)pentylboronic acid]?
A: inhibition at 10 µM (β2(h)): 5%; % Inhibition of Control Values (GABA transaminase): −2%
